In the NIST ThermoML archive (doi:10.1021/je050062a):
Numbers after ± are expanded uncertainties.

Columns and labels:
[1] = Liquid; for mass density: 298.15 K, 101.33 kPa
[2] = refractive index (Na D-line) (dimensionless); settings: 298.15 K; 101.33 kPa; Liquid; Standard Abbe refractometry

Structure (SMILES): CCCC(C)C [2-methylpentane]
- mass density [1]: 648.46 ± 0.59 kg/m3
- vapor or sublimation pressure ([1]; 330 K): 90.76 ± 1.2 kPa
- refractive index [2]: 1.36877 ± 0.00072

Structure (SMILES): CC(C)C(C)O (configuration not stated) [3-methyl-2-butanol]
- mass density [1]: 813.42 ± 0.65 kg/m3
- vapor or sublimation pressure ([1]; 323.61 K): 6.527 ± 0.1 kPa
- vapor or sublimation pressure ([1]; 329.8 K): 9.28 ± 0.1 kPa
- vapor or sublimation pressure ([1]; 330 K): 9.35 ± 0.68 kPa
- vapor or sublimation pressure ([1]; 333.31 K): 11.16 ± 0.11 kPa
- vapor or sublimation pressure ([1]; 336.52 K): 13.19 ± 0.11 kPa
- vapor or sublimation pressure ([1]; 340 K): 15.7 ± 0.72 kPa
- vapor or sublimation pressure ([1]; 340.67 K): 16.23 ± 0.11 kPa
- vapor or sublimation pressure ([1]; 346.13 K): 21.09 ± 0.12 kPa
- vapor or sublimation pressure ([1]; 354.08 K): 30.24 ± 0.14 kPa
- vapor or sublimation pressure ([1]; 360.75 K): 40.25 ± 0.16 kPa
- vapor or sublimation pressure ([1]; 365.98 K): 49.79 ± 0.18 kPa
- vapor or sublimation pressure ([1]; 370.47 K): 59.38 ± 0.21 kPa
- vapor or sublimation pressure ([1]; 374.44 K): 69.02 ± 0.23 kPa
- vapor or sublimation pressure ([1]; 380.99 K): 87.65 ± 0.28 kPa
- vapor or sublimation pressure ([1]; 382.59 K): 92.61 ± 0.29 kPa
- refractive index [2]: 1.407 ± 0.00074

Structure (SMILES): CC(=O)C(C)C [3-methyl-2-butanone]
- mass density [1]: 799.55 ± 0.65 kg/m3
- vapor or sublimation pressure ([1]; 310.45 K): 12.1 ± 0.11 kPa
- vapor or sublimation pressure ([1]; 318.08 K): 16.98 ± 0.11 kPa
- vapor or sublimation pressure ([1]; 324.32 K): 22.06 ± 0.12 kPa
- vapor or sublimation pressure ([1]; 328.85 K): 26.46 ± 0.13 kPa
- vapor or sublimation pressure ([1]; 330 K): 27.69 ± 0.79 kPa
- vapor or sublimation pressure ([1]; 333.49 K): 31.7 ± 0.14 kPa
- vapor or sublimation pressure ([1]; 337.18 K): 36.45 ± 0.15 kPa
- vapor or sublimation pressure ([1]; 340 K): 40.45 ± 0.87 kPa
- vapor or sublimation pressure ([1]; 340.26 K): 40.84 ± 0.16 kPa
- vapor or sublimation pressure ([1]; 346.23 K): 50.54 ± 0.18 kPa
- vapor or sublimation pressure ([1]; 348.87 K): 55.4 ± 0.19 kPa
- vapor or sublimation pressure ([1]; 353.57 K): 64.95 ± 0.21 kPa
- vapor or sublimation pressure ([1]; 357.9 K): 74.9 ± 0.23 kPa
- vapor or sublimation pressure ([1]; 361.86 K): 84.97 ± 0.26 kPa
- vapor or sublimation pressure ([1]; 365.36 K): 94.78 ± 0.28 kPa
- refractive index [2]: 1.3862 ± 0.00074
